Values joined by “and” are separate entries in the source; they are usually repeats but may differ in a detail not shown here. Identical values can stand only once. Marks after values point to notes of the source that are not given here.
What was measured:
human serotonin 5-HT1AR = target: T1, human serotonin 5-HT1AR (Homo sapiens, UniProt P08908); parameters: host or cells: CHO-K1; method as in Pytka et al. [14]; details: cAMP, CHO-K1 cells; ref Pytka et al. [14]; cited from earlier work
T1 sequence (P08908 1-422): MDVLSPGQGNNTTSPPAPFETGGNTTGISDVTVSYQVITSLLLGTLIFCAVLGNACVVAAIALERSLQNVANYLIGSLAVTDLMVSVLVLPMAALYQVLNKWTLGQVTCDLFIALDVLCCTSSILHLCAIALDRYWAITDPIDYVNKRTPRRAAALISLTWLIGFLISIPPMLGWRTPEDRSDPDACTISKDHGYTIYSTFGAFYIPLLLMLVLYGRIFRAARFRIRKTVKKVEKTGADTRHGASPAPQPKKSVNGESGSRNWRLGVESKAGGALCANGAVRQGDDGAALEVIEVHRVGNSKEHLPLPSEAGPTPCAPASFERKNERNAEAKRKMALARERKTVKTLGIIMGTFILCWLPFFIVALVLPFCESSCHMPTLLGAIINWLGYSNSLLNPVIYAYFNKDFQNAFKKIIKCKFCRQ

[1] = target: T2, human serotonin 5-HT1A receptor (Homo sapiens, UniProt P08908); parameters: host or cells: CHO-K1; method as in Pytka et al. [14]; details: pERK1/2, CHO-K1 cells; ref Pytka et al. [14]; cited from earlier work
T2 sequence (P08908 1-422): T1 sequence (P08908 1-422)

human 5-HT1AR = target: T3, human 5-HT1AR (Homo sapiens, UniProt P08908); parameters: TEV protease site; Gal4-VP16 transcription factor; host or cells: U2OS (Tango GPCR-bla U2OS parental line); method as in Pytka et al. [14]; details: β-arrestin, U2OS cells; ref Pytka et al. [14]; cited from earlier work
T3 sequence (P08908 1-422): T1 sequence (P08908 1-422)

mice [2] = assay: Forced swim test (FST) in mice; format: in vivo, Swiss albino mice; details: given alone, 0.3 mg/kg s.c., 45 min before test
Description: (§1) The investigated compounds AZ-853 (8-(4-(4-(2-fluorophenyl)piperazin-1-yl)butyl)-1,3-dimethyl-1H-imidazo[2,1-f]purine-2,4(3H,8H)-dione and AZ-861 (1,3-dimethyl-8-(4-(4-(3-(trifluoromethyl)phenyl)piperazin-1-yl)butyl)-1H-imidazo[2,1-f]purine-2,4(3H,8H)-dione) were synthesised in the Department of Medicinal Chemistry, Faculty of Pharmacy, Jagiellonian University, and their synthesis was described earlier. AZ-853 and AZ-861 were suspended in 1% aqueous solution of Tween 80, and WAY-100635 (Sigma, Germany) was dissolved in 0.9% saline. In acute experiments, the selected compounds AZ-853 (0.156–2.5 mg/kg) and AZ-861 (0.625–2.5 mg/kg) were injected i.p. once 60 min before tests, whereas WAY-100635 (0.3 mg/kg) was administered subcutaneously (s.c.) 45 min before the test. […] In chronic experiments, AZ-853 and AZ-861 were administered i.p. once a day (between 9:00 AM and 10:00 AM) for 16 consecutive days at the minimum active doses selected from FST experiment, i.e. 0.625 and 1.25 mg/kg, respectively. All compounds were administered to mice at a volume of 10 ml/kg and to rats at a volume of 2 ml/kg. The control groups received 1% aqueous solution of Tween 80.
The experiment was carried out according to the method of Porsolt et al.. Swiss albino mice were individually placed in a glass cylinder (25 cm high; 10 cm in diameter) containing 10 cm of water maintained at 23–25°C, and were left there for 6 min. The total duration of immobility was recorded during the last 4 min of a 6-min. A mouse was regarded as immobile when it remained floating on the water, making only small movements to keep its head above it.
(§2) The Swiss albino mice were used in the experiment. AZ-853 and AZ-861 were injected once daily for 16 consecutive days. On the 1st and 15th day the administration of the compounds, 18-h spontaneous animal activity was registered (see below). FST, as described earlier, was performed on the 14th day just before the next treatment. To ensure that the effects observed in FST are not the result of increased motility of animals, on the 13th day, just before the next administration, the locomotor activity was measured as described earlier, from 2 to 6 min after test start, i.e. in the period identical to the duration of FST. Blood and organ collection was performed on the 17th day at 24 h after the last dose and fasting.

mice [3] = assay: Locomotor activity (Opto M3 activity monitor) in mice; format: in vivo, Swiss albino mice
Description: as §1, with “[…].” for “All compounds were administered to mice at a volume of 10 ml/kg and to rats at a volume of 2 ml/kg.”
Locomotor activity was recorded with an Opto M3 multi-channel activity monitor (MultiDevice Software v.1.3, Columbus Instruments). The Swiss albino mice were individually placed in plastic cages (220 × 120 × 130 mm) for 30 min habituation period, and then the crossings of each channel (ambulation) were counted from […] to 6 min, that is the time equal to the observation period in FST. The cages were cleaned up with 70% ethanol after each mouse.
as §2, with “[…].” for “On the 1st and 15th day the administration of the compounds, 18-h spontaneous animal activity was registered (see below).”

SMILES: COc1ccccc1N1CCN(CC(C(=O)NC(C)(C)C)c2ccccc2)CC1 (stereo not shown) [WAY-100135]
- Emax (%) ± SEM, agonist mode (human serotonin 5-HT1AR): 2±0.5^c %
- Emax (%) ± SEM, agonist mode [1]: 2±1.0^c %
- Emax (%) ± SEM, agonist mode (human 5-HT1AR): 1±0.5^c %

SMILES: COc1ccccc1N1CCN(CCN(C(=O)C2CCCCC2)c2ccccn2)CC1 [WAY-100635, reference compound]
- effect on immobility in FST (mice [2]): had no effect on immobility
- effect on spontaneous locomotor activity, acute administration (mice [3]; 4 min period identical to FST, AZ-853 0.625, 1.25, 2.5 mg/kg, AZ-861 1.25 mg/kg, WAY-100635 0.3 mg/kg alone or combined): did not change the locomotor activity
- Number of movements (individual animals) (mice [3]; acute, WAY-100635 0.3 mg/kg alone, 3 to 6 min, raw data, 0.3 mg/kg): 130 and 88 and 93 and 242 and 100 and 107
- Number of movements (mean) (mice [3]; acute, WAY-100635 alone 0.3 mg/kg s.c., 3 to 6 min): 122.9

From article PMC7413516, “Antidepressant-like activity and safety profile evaluation of 1H-imidazo[2,1-f]purine-2,4(3H,8H)-dione derivatives as 5-HT1A receptor partial agonists” (PLoS ONE, 2020)
